In patent publication US20260217656A1, “Compounds Affecting KRAS” (UNIVERSITAT DE BARCELONA, priority 2022, published 2026):
“Also recorded” adds a separate entry of the source.

How the values were obtained:
hTERT-RPE cells = experiment: Cleaved caspase-3 Western blot, hTERT-RPE; format: cell-based, human; settings: hTERT-RPE cells treated 34 h or 48 h
Method: FIG. 6C is a blot showing extracts of DLD-1, DLD-1-KO and RPE cells at 34 h. and 48 h. DLD-1 cells treated with P14B for 36 h and 48 h were lysed and the expression of the apoptosis marker cleaved caspase-3 was analyzed by Western blot. Cells treated with the apoptosis inducer palmitic acid (PA) were used as a positive control.
Proteins were resolved by SDS-PAGE, transferred onto PVDF membranes (Immobilon-P, Millipore) and Western blot was performed as previously described (Cabot et al, Oncogene 2021). […]
Since both inhibition and sustained activation of RAS signaling are related to a decrease in cell survival, we analyzed the viability of the CRC cell lines DLD-1 (expressing oncogenic KRAS) and DLD-1-KO (oncogenic KRAS allele deleted), and the non-transformed cell line hTERT-RPE. […] The effect of P14B in DLD-1 cells cultured in 3D conditions was also determined. […]

DLD-1 cells = experiment: MTS cell viability assay, DLD-1; format: cell-based, human
From the text: (§1) DLD-1 (KRASWT/G13D) (clone V15, #HD PAR-086) colorectal adenocarcinoma cell line and DLD-1 knockout of mutant KRAS allele, DLD-1 KO (KRASWT/−) (clone DWT7, #HD105-002), were obtained from Horizon Discovery Ltd. (Cambridge, UK). hTERT-RPE (KRASWT/WT) immortalized retinal pigment epithelial human cell line was obtained from the […] (ATCC). DLD-1 KO cells stably expressing HA-KRAS G12V were previously generated in our laboratory (Cabot et al., 2021). All cells were grown in DMEM-HAM s F12 (1:1) supplemented with 10% foetal bovine serum (Biological Industries, Israel), penicillin, streptomycin, and nonessential amino acids. Cells were tested once per month for mycoplasma contamination.
MTS viability assay (CellTiter 96® Aqueous One Solution Cell Proliferation Assay, Promega G3580) was assessed following the company conditions. The absorbance of each well was measured with a multimode plate reader (Spark, Tecan) at 490 nm. The percentage of cell viability was calculated by dividing the absorbance of each well by the average absorbance of the control wells.
Since both inhibition and sustained activation of RAS signaling are related to a decrease in cell survival, we analyzed the viability of the CRC cell lines DLD-1 (expressing oncogenic KRAS) and DLD-1-KO (oncogenic KRAS allele deleted), and the non-transformed cell line hTERT-RPE. […] At the IC50 of approximately 80 μM for DLD-1 cells, the viability of DLD-1-KO and of non-transformed cells was not affected (FIG. 6A). […] The effect of P14B in DLD-1 cells cultured in 3D conditions was also determined. […] Consequently, we conclude that P14B selectively reduces the viability of CRC cells expressing oncogenic KRAS, causing minor effects if these cells have been knocked out for oncogenic KRAS or in non-transformed cells. Thereby, P14B might be considered as an inducer of apoptosis in CRC with oncogenic KRAS.
[…] Each point corresponds to n=6. The concentration (μM) indicated in the graph is the one in the final 100 μL volume). **** p<0.0001 (t-student test).

[1] = system: ERK and AKT in DLD-1-KO cells; experiment: Western blot of AKT and ERK activation in serum-starved DLD-1-KO cells; format: cell-based, human; settings: DLD-1-KO serum-starved cells, 100 μM
From the text: as §1, with “Cells were tested once per month for mycoplasma contamination.” left out
For analysis of RAS signalling, cells were lysed in a buffer containing 67 mM Tris-HCl pH 6.8 and 2% SDS and then the samples were heated at 97° C. for 15 minutes. Protein concentration of the lysates was assessed using the Lowry method. […]
Comparison of Ras signaling between DLD-1, DLD-1-KO and hTERT-RPE cells treated with P14B since important differences were observed between the viability of cells treated with P14B depending on their expression or lack of expression of oncogenic KRAS, we further studied whether these discrepancies were reflected also in KRAS downstream signaling. Serum-starved cells (0.1% FCS) were treated with P14B (100 μM) and activation of AKT and ERK was evaluated by WB. […]

[2] = molecular target: T1, GST-KRAS-G12V binding to CaM (Homo sapiens, UniProt P01116, G12V); experiment: CaM-sepharose pulldown competition assay; settings: increasing concentrations of P14B
T1 construct: recombinant GTP-loaded GST-KRAS-G12V (1-166) with CaM-sepharose beads; made in house; host or cells: Escherichia coli BCI21 (so in the source)
Method: […] of recombinant GST-KRAS (1-166) (GTP loaded) and 12.5 I of CaM-sepharose beads (Cytiva; Merck) (previously washed with pull-down buffer (PDB) containing 50 mM Tris-HCl, pH 7.5, 150 mM NaCl, 0.1% (v/v) Triton X-100) were incubated in the presence of 1 mM CaCl2 or 5 mM EGTA (in a total volume of 100 I with PDB) for 60 minutes at room temperature. The unbound fraction was collected by centrifugation, and the bound fraction was washed four times with PDB with either CaCl2 or EGTA. The entire bound fraction was analysed by WB.
GST-KRAS (1-166) fusion protein was expressed in Escherichia coli BCI21 and then purified and loaded with the specific nucleotide as previously described (Villalonga et al., 2001).
To confirm the direct interaction between KRAS and P14B, surface plasmon resonance analysis was performed. Purified GST-KRAS (aminoacids 1 to 166) was immobilized and then GTP loaded. […] Given that P14B is able to bind to oncogenic KRAS (FIG. 4) most likely via the same surface that KRAS uses to interact with CaM, we analyzed the possibility that P14B can displace CaM from oncogenic KRAS. To this end, we performed an in vitro competence assay that consisted of pulling-down recombinant GTP-loaded GST-KRAS-G12V (1-166) with CaM-sepharose beads followed by incubation with increasing concentrations of P14B.

COc1ccc(C(c2c(C)n[nH]c2O)c2c(C)n[nH]c2O)cc1Oc1ccc([N+](=O)[O-])cc1 [Example P14B]
cleaved caspase-3 expression (hTERT-RPE cells): undetectable | maxim cell viability reduction compared with Erlotinib (DLD-1 cells; DLD-1, 5000 cells, 48 h treatment): significantly higher | IC50 (DLD-1 cells; DLD-1 cells, dose-response 0 to 100 μM, 24 hours): ~80 µM | cell viability (DLD-1 cells; DLD-1 cells, specifically at 75 μM and 100 μM): significantly reduced the cell viability; also recorded: decreases the viability | AKT and ERK activation [1]: AKT and ERK activation by P14B was also observed | levels of ERK phosphorylation compared with 10% FBS treatment [1]: significantly lower | Ca+2-dependent GST-KRAS-G12V binding to CaM [2]: reduced
